compound: CC(O)(CS(=O)(=O)c1ccc(F)cc1)C(=O)Nc1ccc(C#N)c(C(F)(F)F)c1 [Bicalutamide] + CS(=O)(=O)N1CCN(Cc2cc3nc(-c4cccc5[nH]ncc45)nc(N4CCOCC4)c3s2)CC1 [Pictilisib] (partner 1 µM); assay: relative viability (nuclei count vs DMSO), 5 days (fraction); higher = more cells survive; details: first compound 0.08 µM
Outline: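 Relative viability was taken as the ratio of nuclei in treated wells to nuclei in vehicle wells. Lung cancer cell lines in 1536-well plates received compounds by pin tool one day after seeding, either one drug alone or a fixed anchor-drug dose plus five library-drug doses (not always all listed) in √10 steps. Nuclei were counted on 4× images after 5 days of treatment, and values are medians of duplicate plates.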

Question: For NCI-H1703, which relative viability is on record?
Answer: 0.235

Question: Which relative viability does the source give for NCI-H2009 here?
Answer: 1.2

Question: How did the relative viability turn out when PC-14 was run?
Answer: 0.894

Question: With LCLC-103H as the cell line, how does the relative viability read?
Answer: 0.692

Question: NCI-H596 was tested. Which relative viability did it give?
Answer: 0.409

Question: Which relative viability does the source give for NCI-H2228 here?
Answer: 0.347

Question: How did the relative viability turn out when EMC-BAC-2 was run?
Answer: 0.517

Question: NCI-H2087 was tested. Which relative viability did it give?
Answer: 0.84

Question: Calu-6 was tested. Which relative viability did it give?
Answer: 1.06

Question: Which relative viability does the source give for HCC-366 here?
Answer: 0.124

Question: With NCI-H1666 as the cell line, how does the relative viability read?
Answer: 0.392

Question: For NCI-H647, which relative viability is on record?
Answer: 0.358

Question: With LK-2 as the cell line, how does the relative viability read?
Answer: 0.591

Question: How did the relative viability turn out when NCI-H2126 was run?
Answer: 0.494

Question: SK-MES-1 was tested. Which relative viability did it give?
Answer: 0.351

Question: With H3255 as the cell line, how does the relative viability read?
Answer: 0.521

Question: Which relative viability does the source give for COR-L23 here?
Answer: 0.896

Question: For COR-L 105, which relative viability is on record?
Answer: 0.372

Question: IA-LM was tested. Which relative viability did it give?
Answer: 0.368

Question: With LOU-NH91 as the cell line, how does the relative viability read?
Answer: 0.537

Question: With ChaGo-K-1 as the cell line, how does the relative viability read?
Answer: 0.818

Question: How did the relative viability turn out when NCI-H2170 was run?
Answer: 0.308

Question: Which relative viability does the source give for NCI-H3122 here?
Answer: 0.665

Question: With HOP-62 as the cell line, how does the relative viability read?
Answer: 0.971

Question: For HCC-44, which relative viability is on record?
Answer: 0.702

Question: A549 was tested. Which relative viability did it give?
Answer: 0.546

Question: How did the relative viability turn out when LU99A was run?
Answer: 0.295

Question: How did the relative viability turn out when BEN was run?
Answer: 0.589

Question: How did the relative viability turn out when HARA was run?
Answer: 0.462

Question: NCI-H2023 was tested. Which relative viability did it give?
Answer: 0.279

Question: NCI-H520 was tested. Which relative viability did it give?
Answer: 0.516

Question: How did the relative viability turn out when SW 1573 was run?
Answer: 0.564

Question: For NCI-H1299, which relative viability is on record?
Answer: 0.909

Question: With CAL-12T as the cell line, how does the relative viability read?
Answer: 0.394

Question: How did the relative viability turn out when NCI-H1563 was run?
Answer: 0.641

Question: Which relative viability does the source give for SK-LU-1 here?
Answer: 0.6

Question: Which relative viability does the source give for NCI-H661 here?
Answer: 0.433

same assay, conditions: first compound 0.253 µM

Question: How did the relative viability turn out when NCI-H838 was run?
Answer: 0.415

Question: With NCI-H1650 as the cell line, how does the relative viability read?
Answer: 0.502

Question: How did the relative viability turn out when EBC-1 was run?
Answer: 0.362

Question: Which relative viability does the source give for NCI-H1703 here?
Answer: 0.261

Question: Which relative viability does the source give for NCI-H2009 here?
Answer: 0.944

Question: NCI-H1993 was tested. Which relative viability did it give?
Answer: 0.764

Question: Which relative viability does the source give for PC-14 here?
Answer: 0.652

Question: How did the relative viability turn out when LCLC-103H was run?
Answer: 0.444

Question: How did the relative viability turn out when NCI-H596 was run?
Answer: 0.623

Question: With NCI-H2228 as the cell line, how does the relative viability read?
Answer: 0.341

Question: EMC-BAC-2 was tested. Which relative viability did it give?
Answer: 0.531

Question: For NCI-H2087, which relative viability is on record?
Answer: 0.891

Question: How did the relative viability turn out when Calu-6 was run?
Answer: 0.87

Question: With HCC-366 as the cell line, how does the relative viability read?
Answer: 0.101

Question: With NCI-H1666 as the cell line, how does the relative viability read?
Answer: 0.404

Question: NCI-H647 was tested. Which relative viability did it give?
Answer: 0.348

Question: Which relative viability does the source give for LK-2 here?
Answer: 0.442

Question: With NCI-H2126 as the cell line, how does the relative viability read?
Answer: 0.468

Question: For SK-MES-1, which relative viability is on record?
Answer: 0.39

Question: H3255 was tested. Which relative viability did it give?
Answer: 0.376

Question: How did the relative viability turn out when COR-L23 was run?
Answer: 0.724

Question: With COR-L 105 as the cell line, how does the relative viability read?
Answer: 0.324

Question: For IA-LM, which relative viability is on record?
Answer: 0.389

Question: LOU-NH91 was tested. Which relative viability did it give?
Answer: 0.471

Question: Which relative viability does the source give for ChaGo-K-1 here?
Answer: 0.606

Question: NCI-H2170 was tested. Which relative viability did it give?
Answer: 0.298

Question: How did the relative viability turn out when NCI-H3122 was run?
Answer: 0.645

Question: With HOP-62 as the cell line, how does the relative viability read?
Answer: 0.806

Question: HCC-44 was tested. Which relative viability did it give?
Answer: 0.534

Question: For A549, which relative viability is on record?
Answer: 0.483

Question: With LU99A as the cell line, how does the relative viability read?
Answer: 0.321

Question: How did the relative viability turn out when BEN was run?
Answer: 0.472

Question: HARA was tested. Which relative viability did it give?
Answer: 0.413

Question: With NCI-H2023 as the cell line, how does the relative viability read?
Answer: 0.21

Question: NCI-H520 was tested. Which relative viability did it give?
Answer: 0.254

Question: With SW 1573 as the cell line, how does the relative viability read?
Answer: 0.475

Question: NCI-H1299 was tested. Which relative viability did it give?
Answer: 0.698

Question: For CAL-12T, which relative viability is on record?
Answer: 0.415

Question: How did the relative viability turn out when NCI-H1563 was run?
Answer: 0.596

Question: How did the relative viability turn out when SK-LU-1 was run?
Answer: 0.503

same assay, conditions: first compound 0.8 µM

Question: NCI-H838 was tested. Which relative viability did it give?
Answer: 0.524

Question: How did the relative viability turn out when NCI-H1650 was run?
Answer: 0.825

Question: For EBC-1, which relative viability is on record?
Answer: 0.378

Question: Which relative viability does the source give for NCI-H1703 here?
Answer: 0.236

Question: With NCI-H2009 as the cell line, how does the relative viability read?
Answer: 1.06

Question: With NCI-H1993 as the cell line, how does the relative viability read?
Answer: 0.744

Question: PC-14 was tested. Which relative viability did it give?
Answer: 0.707

Question: How did the relative viability turn out when LCLC-103H was run?
Answer: 0.673

Question: With NCI-H596 as the cell line, how does the relative viability read?
Answer: 0.404

Question: For NCI-H2228, which relative viability is on record?
Answer: 0.425

Question: With EMC-BAC-2 as the cell line, how does the relative viability read?
Answer: 0.527

Question: Which relative viability does the source give for NCI-H2087 here?
Answer: 1.05

Question: For Calu-6, which relative viability is on record?
Answer: 1.04

Question: Which relative viability does the source give for HCC-366 here?
Answer: 0.147

Question: How did the relative viability turn out when NCI-H1666 was run?
Answer: 0.477

Question: For NCI-H647, which relative viability is on record?
Answer: 0.643

Question: LK-2 was tested. Which relative viability did it give?
Answer: 0.754

Question: How did the relative viability turn out when NCI-H2126 was run?
Answer: 0.511

Question: For SK-MES-1, which relative viability is on record?
Answer: 0.382

Question: H3255 was tested. Which relative viability did it give?
Answer: 0.48

Question: For COR-L23, which relative viability is on record?
Answer: 0.945

Question: COR-L 105 was tested. Which relative viability did it give?
Answer: 0.394

Question: Which relative viability does the source give for IA-LM here?
Answer: 0.422

Question: How did the relative viability turn out when LOU-NH91 was run?
Answer: 0.549

Question: ChaGo-K-1 was tested. Which relative viability did it give?
Answer: 0.892

Question: For NCI-H2170, which relative viability is on record?
Answer: 0.289

Question: NCI-H3122 was tested. Which relative viability did it give?
Answer: 0.676

Question: Which relative viability does the source give for HOP-62 here?
Answer: 0.998

Question: With HCC-44 as the cell line, how does the relative viability read?
Answer: 0.727

Question: For A549, which relative viability is on record?
Answer: 0.617

Question: How did the relative viability turn out when LU99A was run?
Answer: 0.364

Question: With BEN as the cell line, how does the relative viability read?
Answer: 0.713

Question: With HARA as the cell line, how does the relative viability read?
Answer: 0.566

Question: For NCI-H2023, which relative viability is on record?
Answer: 0.253

Question: NCI-H520 was tested. Which relative viability did it give?
Answer: 0.281

Question: SW 1573 was tested. Which relative viability did it give?
Answer: 0.461

Question: Which relative viability does the source give for NCI-H1299 here?
Answer: 0.823

Question: Which relative viability does the source give for CAL-12T here?
Answer: 0.454

Question: How did the relative viability turn out when NCI-H1563 was run?
Answer: 0.644

Question: Which relative viability does the source give for SK-LU-1 here?
Answer: 0.715

Question: How did the relative viability turn out when NCI-H661 was run?
Answer: 0.494

same assay, conditions: first compound 2.53 µM

Question: Which relative viability does the source give for NCI-H838 here?
Answer: 0.324

Question: With NCI-H1650 as the cell line, how does the relative viability read?
Answer: 0.597

Question: For EBC-1, which relative viability is on record?
Answer: 0.23

Question: With NCI-H1703 as the cell line, how does the relative viability read?
Answer: 0.231

Question: For NCI-H2009, which relative viability is on record?
Answer: 0.737

Question: Which relative viability does the source give for NCI-H1993 here?
Answer: 0.671

Question: PC-14 was tested. Which relative viability did it give?
Answer: 0.659

Question: How did the relative viability turn out when LCLC-103H was run?
Answer: 0.544

Question: Which relative viability does the source give for NCI-H596 here?
Answer: 0.475

Question: NCI-H2228 was tested. Which relative viability did it give?
Answer: 0.409

Question: EMC-BAC-2 was tested. Which relative viability did it give?
Answer: 0.456

Question: For NCI-H2087, which relative viability is on record?
Answer: 0.835

Question: Which relative viability does the source give for Calu-6 here?
Answer: 0.839

Question: Which relative viability does the source give for HCC-366 here?
Answer: 0.0426

Question: With NCI-H1666 as the cell line, how does the relative viability read?
Answer: 0.406

Question: Which relative viability does the source give for NCI-H647 here?
Answer: 0.339

Question: With LK-2 as the cell line, how does the relative viability read?
Answer: 0.667

Question: How did the relative viability turn out when NCI-H2126 was run?
Answer: 0.43

Question: Which relative viability does the source give for SK-MES-1 here?
Answer: 0.357

Question: How did the relative viability turn out when H3255 was run?
Answer: 0.462

Question: With COR-L23 as the cell line, how does the relative viability read?
Answer: 0.765

Question: With COR-L 105 as the cell line, how does the relative viability read?
Answer: 0.303

Question: How did the relative viability turn out when IA-LM was run?
Answer: 0.507

Question: Which relative viability does the source give for LOU-NH91 here?
Answer: 0.491

Question: For ChaGo-K-1, which relative viability is on record?
Answer: 0.523

Question: How did the relative viability turn out when NCI-H2170 was run?
Answer: 0.302

Question: NCI-H3122 was tested. Which relative viability did it give?
Answer: 0.652

Question: Which relative viability does the source give for HOP-62 here?
Answer: 0.614

Question: With HCC-44 as the cell line, how does the relative viability read?
Answer: 0.479

Question: How did the relative viability turn out when A549 was run?
Answer: 0.357

Question: With LU99A as the cell line, how does the relative viability read?
Answer: 0.209

Question: With BEN as the cell line, how does the relative viability read?
Answer: 0.632

Question: For HARA, which relative viability is on record?
Answer: 0.316

Question: How did the relative viability turn out when NCI-H2023 was run?
Answer: 0.178

Question: For NCI-H520, which relative viability is on record?
Answer: 0.335

Question: SW 1573 was tested. Which relative viability did it give?
Answer: 0.535

Question: With NCI-H1299 as the cell line, how does the relative viability read?
Answer: 0.492

Question: With CAL-12T as the cell line, how does the relative viability read?
Answer: 0.345

Question: With NCI-H1563 as the cell line, how does the relative viability read?
Answer: 0.599

Question: How did the relative viability turn out when SK-LU-1 was run?
Answer: 0.59

Question: For NCI-H661, which relative viability is on record?
Answer: 0.407

Reference: the supplement of paper PMC10307832
